The numbers were not newly measured in patent publication US20030232787A1, “Combinations of an endothelin receptor antagonist and an antiepileptic compound having pain alleviating properties or analgesic” (priority 2002, published 2003), which cites them from elsewhere.

In data set [1] the test system is mouse model of inflammation and hyperalgesia. The settings on record: Piovezan et al. 2000; cited from earlier work.
Data set [2] relates to rat model of diabetic neuropathy. As to conditions: Jarvis et al. 2000; cited from earlier work.
For data set [3], the system named is streptozotocin-induced static allodynia. As to conditions: rat; Field et al.; cited from earlier work.

Square brackets hold non-standard residues; d marks the D form. Peptide text beside a SMILES is read from it.

In the case of `CC(C)C[C@@H]1NC(=O)[C@@H](C(C)C)NC(=O)[C@@H]2CCCN2C(=O)[C@@H](CC(=O)O)NC(=O)[C@@H](Cc2c[nH]c3ccccc23)NC1=O` [BQ-123] (cyclo(L[dW][dD]P[dV])), the effect on pain entry in data set [1] is listed as “alleviate pain”.

For `CCCCN(CCCC)C(=O)CN1C[C@H](c2ccc3c(c2)OCO3)[C@@H](C(=O)O)[C@@H]1c1ccc(OC)cc1` [ABT-627, 2R-(4-Methoxyphenyl)-4S-(1,3-benzodioxol-5-yl)-1-(N,N-di(n-butyl)aminocarbonyl-methyl)-pyrrolidine-3R-carboxylic acid], the effect on pain entry in data set [2] is given as “attenuate pain”. Consider `CC(NC(=O)C(C)(Cc1c[nH]c2ccccc12)NC(=O)OCc1cc2ccccc2o1)c1ccccc1` (stereo not drawn) [[2-(1H-indol-3-yl)-1-methyl-1-(1-phenyl-ethylcarbamoyl)-ethyl]-carbamic acid benzofuran-2-ylmethyl ester], for which, in data set [3], the “effect on maintenance of streptozotocin-induced static allodynia” value is reported as “block the maintenance of streptozotocin-induced static allodynia”.
